Laboratory results as given in article PMC10578927, “An unconventional gatekeeper mutation sensitizes inositol hexakisphosphate kinases to an allosteric inhibitor” (eLife, 2023).

Columns and labels:
Format in all cases: biochemical
IP6K1^wt [1] = molecular target: T1, IP6K1^wt (Homo sapiens, UniProt Q92551); assay: High-throughput screen, reverse kinase reaction (5PP-InsP5 + ADP), Kinase-Glo luminescence; details: dose-dependent reconfirmation
T1 construct: made in house; host or cells: E. coli Arctic Express

IP6K1^L210V [2] = molecular target: T2, IP6K1^L210V (Homo sapiens, UniProt Q92551, L210V); assay: as above
T2 construct: made in house; host or cells: E. coli Arctic Express
Description: Although the NMR assay described above provides direct product detection and the ability to distinguish the PP-InsP isomers ([Harmel et al., 2019]), it is inherently slow and thus not compatible with a high-throughput screen. The use of luminescence-based readouts of ATP consumption to measure IP6K activity is error-prone due to the kinase’s unusually low affinity for ATP, the sensitivity to the ATP/ADP ratio, and its inherent ATPase activity ([Wundenberg et al., 2014]; [Voglmaier et al., 1996]). Nevertheless, we were able to take advantage of these properties by examining the reverse reaction of IP6K1 with the Kinase-Glo assay, where 5PP-InsP5 and ADP are converted to InsP6 and ATP (Figure 3a).
The following solutions were prepared as 4× stock solutions: kinase buffer (HEPES pH 7.4, NaCl, BSA, MgCl2, Tween-20, DTT, and IP6K1^L210V), DMSO/inhibitor, ADP, and 5PP-InsP5. Final concentrations after optimization were 1 mM ADP, 20 mM HEPES, 50 mM NaCl, 0.2 mg/ml BSA, 2 mM MgCl2, 0.05% Tween-20, 1 mM DTT, 250 nM IP6K1^L210V, and 50 μM 5PP-InsP5. The reactions were carried out in 384-well plates following this procedure. 5 µl 4× kinase buffer (buffer only for no kinase controls), 5 µl 4× DMSO or inhibitor and 5 µl 4× ADP solution were subsequently added to all wells. After 10 min equilibration, 5 μl 4× 5PP-InsP5 were added to start the reaction (milli-Q water for negative controls). After 3 hr at room temperature, 20 µl of Promega Kinase-Glo Plus reagent were added and the luminescence read out with a Tecan Infinite M Plex reader using 100-ms exposure time after 10 min of equilibration.
ADP was prepared in a 2× stock solution in milli-Q water and the pH adjusted to 7.0. The following solutions were prepared as 4× stock solutions: kinase buffer (HEPES pH 7.4, NaCl, BSA, MgCl2, Tween-20, DTT, and IP6K1^L210V) and 5PP-InsP5. Final concentrations were 1 mM ADP, 20 mM HEPES, 50 mM NaCl, 0.2 mg/ml BSA, 2 mM MgCl2, 0.05% Tween-20, 1 mM DTT, 250 nM IP6K1^L210V, and 50 µM 5PP-InsP5. The reactions were carried out in 384-well plates following this procedure. 10 µl 2× ADP solution were added to all wells, then 0.2 µl DMSO or compound (1 mM in DMSO) were added followed by the addition of 5 µl 4× kinase buffer. For dose–response curves, compounds were added in serial dilution (twofold serial dilutions in DMSO across multiple plates prior to compound transfer to assay plates, 9 concentrations in total). After 10 min equilibration, 5 µl 4× 5PP-InsP5 were added to start the reaction (milli-Q water for negative controls). After 3 hr at room temperature, 20 µl of Promega Kinase-Glo Plus reagent were added and the luminescence read out with a Tecan Infinite M Plex or Perkin Elmer EnVision reader using 100ms exposure time after 10 min of equilibration. In the counter screen, dose–response curves were measured in the absence of kinase and presence of 50 µM ATP.

IP6K1^L210V [3] = molecular target: T2, IP6K1^L210V; assay: Michaelis–Menten and Lineweaver–Burk kinetics (NMR); details: versus ATP, two inhibitor concentrations
Protocol: Kinetic assays were performed in D2O in a total volume of 500 µl containing the same buffer components for IP6K and IP6KA constructs as stated for the NMR activity assays above. […] If applicable, inhibitor was added as a DMSO-d6 stock at a final DMSO concentration of 1%. Otherwise, DMSO-d6 was added to the same percentage. The samples were equilibrated at 37°C for 5 min and the reaction initiated by adding 100 µM [^13C6]-InsP6. The reaction time was adjusted so that conversion would not exceed 20% to remain in the linear range for initial velocity measurements. The reaction was quenched with 38 µl 700 mM EDTA pH* 8.0 and transferred into an NMR tube before being measured on a Bruker […] 600 PLUS with an NMR pulse program developed previously ([Harmel et al., 2019]). Initial velocities were calculated by dividing the amount of generated product by the product of reaction time in seconds and mass of the kinase in mg.

IP6K1^L210V [4] = molecular target: T2, IP6K1^L210V; assay: NMR activity assay, [13C6]-InsP6 to 5PP-InsP5, with ATP-regenerating system
Description: (§1) The gatekeeper mutants L210G and L210A of IP6K1 were generated by site-directed mutagenesis and the enzymes were recombinantly expressed, analogous to the WT kinase, as MBP-fusion proteins. To assess their catalytic activity, we used an NMR assay that harnesses fully ^13C-labeled InsP6 as a substrate and enables direct product readout of 5PP-InsP5 (Figure 2b and Figure 2—figure supplement 1; [Puschmann et al., 2019]; [Harmel et al., 2019]). […] Likewise, IP6K2 suffered a drastic decline in substrate turnover upon gatekeeper mutation to glycine (Figure 2—figure supplement 2).
(§2) The NMR assay for IP6K activity was performed similarly as described before ([Harmel et al., 2019]) with slight alterations. Enzyme assays were performed in D2O in a total volume of 150 µl containing 20 mM 4-(2-hydroxyethyl)-1-piperazineethanesulfonic acid (HEPES) pH* 6.8, 50 mM NaCl, 6 mM MgCl2, 1 mM ATP, 0.2 mg/ml BSA, 1 mM DTT, 5 mM creatine phosphate and 1 U/ml creatine kinase (ATP-regenerating system) and 50 nM kinase if not otherwise stated. HEPES, NaCl, and BSA were prepared as buffer A and DTT and creatine phosphate as buffer B in D2O and were adjusted to pH* 6.8, respectively. If applicable, inhibitor was added as a DMSO-d6 stock in a twofold dilution series at a final DMSO concentration of 1% if not otherwise mentioned. Otherwise, DMSO-d6 was added to the same percentage. The samples were equilibrated at 37°C for 3 min and the reaction initiated by adding 100 µM [^13C6]-InsP6.

IP6K1^wt [5] = molecular target: T1, IP6K1^wt; assay: as above; details: 1 mM ATP, ATP-regenerating system
Description: as §1, §2

T2 sequence (Q92551 whole entry L210V): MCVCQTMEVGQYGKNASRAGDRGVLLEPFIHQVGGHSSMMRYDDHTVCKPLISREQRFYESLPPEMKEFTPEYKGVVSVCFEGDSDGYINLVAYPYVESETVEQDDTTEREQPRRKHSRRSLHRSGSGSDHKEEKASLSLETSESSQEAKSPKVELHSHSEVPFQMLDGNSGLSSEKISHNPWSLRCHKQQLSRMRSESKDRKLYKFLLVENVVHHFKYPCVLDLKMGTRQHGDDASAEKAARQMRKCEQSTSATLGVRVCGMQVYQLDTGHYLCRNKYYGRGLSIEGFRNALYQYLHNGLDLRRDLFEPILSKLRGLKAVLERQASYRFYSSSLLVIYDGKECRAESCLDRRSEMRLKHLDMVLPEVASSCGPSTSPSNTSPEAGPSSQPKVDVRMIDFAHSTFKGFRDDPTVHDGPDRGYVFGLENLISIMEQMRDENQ
T1 sequence (Q92551 whole entry): as the sequence (Q92551 whole entry L210V) above, with V210L counted along it

Question: Which results are given for `O=C(O)c1ccc2c(c1)C(=O)N(c1ccc(-c3nc4ccc(N5C(=O)c6ccc(C(=O)O)cc6C5=O)cc4[nH]3)cc1)C2=O` [FMP-201300]?
Answer: IC50 (IP6K1^wt [1]): 17000 nM; IC50 (IP6K1^L210V [2]; Kinase-Glo, reverse reaction, dose-dependent reconfirmation): 1600 nM; Z-score (IP6K1^L210V [2]; primary screen, IP6K1^L210V): -24.0; %Activity (IP6K1^L210V [2]; primary screen, residual activity of IP6K1^L210V): 12.5%; mechanism of inhibition (Lineweaver–Burk) (IP6K1^L210V [3]): allosteric mechanism; IC50 (IP6K1^L210V [4]; 100 μM InsP6): 75 nM; IC50 (IP6K1^L210V [4]; 500 μM InsP6): 87 nM; difference in IC50 values measured at 100 and 500 µM InsP6 (IP6K1^L210V [4]; IP6K1^L210V): negligible; IC50 (IP6K1^L210V [4]; NMR assay, 1 mM ATP, ATP-regenerating system): 114 nM; IC50 (IP6K1^wt [5]): 810 nM
